Experimental data: patent US11904051B2, “Shear stress sensitive liposomes” (Universität Basel, priority 2018, dated 2024)
One block for each molecule: values may come before it.

Experiments:
[1] = Spatially resolved SAXS of liposomes under dynamic (flow/shear) condition in microfluidic device; format: physicochemical
Experimental: The measurement in glass capillaries provided the fingerprint of Pad-PC-Pad liposome structure in static condition. In order to investigate the behavior of Pad-PC-Pad liposomes under an external perturbation, such as a shear stress gradient, 2D raster SAXS scans of Pad-PC-Pad liposomes under flow conditions, produced in a microfluidic device, were recorded. Three flow velocities v were tested: v=0.002; 0.02; and 0.2 μL/s. The corresponding shear rates were determined using Eq. 1. From the lowest to the highest flow rate, the shear rates in the constriction (h=250 μm, w=125 μm) were=1.54, 15.4, and 154.0 s^−1, whereas in the wide region (h=250 μm, w=1000 μm) they corresponded to =0.2 s^−1, 2.0 s^−1, and 20.0 s^−1 2 D maps of the mean scattering intensity in the range Δq=0:096 to 0:102 nm^−1 corresponding to a real space range Δd=65.4 to 61.6 nm between the overall size and the size of the phospholipid head-to-head distance are shown in FIG. 12.
The local modifications of the averaged scattering intensity distribution observed in the 2D scanning SAXS maps of FIG. 12 supported the selection of seven regions of the micro fluidic device, as shown in the sketch of FIG. 13. Three regions were selected before the constriction: one far (#1), one approaching (#2), and one very close (A); symmetrically, on the outlet side, three areas were chosen one very close (B), one close (#4), and one far from the constriction (#5). Region #3 was selected in the constriction avoiding the edges of the device. For each region, the radially integrated scattering intensity I as a function of the scattering vector q at each flow rate v is shown.
The spatially resolved SAXS measurements were performed at the cSAXS beamline at the Swiss Light Source (PSI, Villigen, Switzerland). The X-ray beam was focused to 25 μm×50 μm (vertical×horizontal) spot size at the specimen location, the photon energy was set to 11:2 keV (λ=1:1 Å), and the sample-detector distance to 7:102 m, determined by the first scattering order of a silver behenate specimen. The scattering signal was recorded using the Pilatus 2M detector (Kraftet al., J. Synchrotron Radiat. 2009, 16, 368-375) (pixel size: 172 μm_×172 μm). Dynamic spatially resolved SAXS measurements of the liposomal suspensions were performed using microfluidic devices mounted on an aluminum/polyetheretherketone/aluminum sample holder. Two-dimensional (2D) scans were realized line-by-line by continuously moving the device in horizontal direction, while the detector recorded the data in burst mode. 48 (v)×96 (h) points at step size 25 μm (v)×50 μm (h) were acquired in a pre-selected region of the microfluidic device with an exposure time of 1:5 s per point. The data were processed using the Matlab package available from the beamline (https://www.psi.ch/sls/csaxs/software). During the experiment, the flow rates were adjusted using a syringe pump system (Nemesys, Cetoni GmbH, Korbussen, Germany) connected to the microchannel using polytetrafluoroethylene (PTFE) tubing. For the point-wise background correction, the scattering signal of ultra-pure water in the microfluidic device for all the measured flow rates was recorded before the acquisition of the SAXS signal of the liposomal suspensions. For the microfluidic device with a rectangular channel cross-section, the wall shear rates were calculated from the volumetric flow rates v using the following equation: (Molloy et al., Journal of Thrombosis and Haemostasis 2016, 15, 972-982) λ=6v=h^2w (1) with the shear rate [s^−1], v the volumetric flow rate [μL/s], and w and h the width and height [μm] of the channel, respectively.

[2] = Cryo-TEM of large unilamellar vesicles made of Rad-PC-Rad; format: physicochemical; conditions: 509 membrane cuts in cryo-TEM image
Experimental: The inventors measured the cryo-TEM images according to a previously described protocol (Ishikawa et al, J. Mol. Biol. 2007, 368 (5), 1249-1258). The cryo-TEM images recorded from large unilamellar vesicles (LUV) entirely made of Rad-PC-Rad, show a significant number of strongly facetted shapes below the membranes' main phase transition temperature of the membranes (Tm≈45° C.) (FIGS. 6 and 7). The ratio between facetted and spherical vesicles calculated from FIG. 6 is 21:4.
The interdigitation of the leaflets in a membrane can be directly measured from lateral cuts through the membrane in the cryo-TEM image (FIG. 6). To collect statistically relevant data, the inventors measured 509 membrane cuts (FIG. 6) with a mean membrane thickness of 3.20 nm±0.02 nm (N=509). With two times 0.7 nm for the headgroups, the hydrophobic layer is 1.8 nm thick. An all-trans alkyl chain of 16 C-atoms has a length of 2.05 nm. Thus, the alkyl chains would have a tilt angle of 64°, which is physically absurd. Therefore, a full bilayer interdigitation can be assumed.

[3] = flow rate 0.002 pL/s, position #1
[4] = flow rate 0.002 pL/s, position #2
[5] = flow rate 0.002 pL/s, position #3 (constriction)
[6] = flow rate 0.002 pL/s, position #4
[7] = flow rate 0.002 pL/s, position #5
[8] = flow rate 0.002 pL/s, position A
[9] = flow rate 0.002 pL/s, position B
[10] = flow rate 0.02 pL/s, position #1
[11] = flow rate 0.02 pL/s, position #2
[12] = flow rate 0.02 pL/s, position #3 (constriction)
[13] = flow rate 0.02 pL/s, position #4
[14] = flow rate 0.02 pL/s, position #5
[15] = flow rate 0.02 pL/s, position A
[16] = flow rate 0.02 pL/s, position B
[17] = flow rate 0.20 pL/s, position #1
[18] = flow rate 0.20 pL/s, position #2
[19] = flow rate 0.20 pL/s, position #3 (constriction)
[20] = flow rate 0.20 pL/s, position #4
[21] = flow rate 0.20 pL/s, position #5
[22] = flow rate 0.20 pL/s, position A
[23] = flow rate 0.20 pL/s, position B

Radius of gyration Rg [1, 3]: 59.5 ± 0.2 nm | head-to-head distance dhh [1, 3]: 3.4 ± 0.7 nm | Radius of gyration Rg [1, 4]: 59.1 ± 0.1 nm | head-to-head distance dhh [1, 4]: 3.1 ± 0.4 nm | Radius of gyration Rg [1, 5]: 63.0 ± 0.5 nm | head-to-head distance dhh [1, 5]: 3.9 ± 0.7 nm | Radius of gyration Rg [1, 6]: 61.1 ± 0.2 nm | head-to-head distance dhh [1, 6]: 3.9 ± 0.4 nm | Radius of gyration Rg [1, 7]: 61.6 ± 0.2 nm | head-to-head distance dhh [1, 7]: 3.8 ± 0.3 nm | Radius of gyration Rg [1, 8]: 60.3 ± 0.4 nm | head-to-head distance dhh [1, 8]: 3.4 ± 0.5 nm | Radius of gyration Rg [1, 9]: 59.3 ± 0.9 nm | head-to-head distance dhh [1, 9]: 4.0 ± 0.6 nm | Radius of gyration Rg [1, 10]: 60.2 ± 0.2 nm | head-to-head distance dhh [1, 10]: 3.4 ± 0.7 nm | Radius of gyration Rg [1, 11]: 58.0 ± 0.4 nm | head-to-head distance dhh [1, 11]: 2.9 ± 0.2 nm | Radius of gyration Rg [1, 12]: 64.3 ± 0.6 nm | head-to-head distance dhh [1, 12]: 3.5 ± 0.6 nm | Radius of gyration Rg [1, 13]: 59.1 ± 0.3 nm | head-to-head distance dhh [1, 13]: 3.6 ± 0.3 nm | Radius of gyration Rg [1, 14]: 61.3 ± 0.1 nm | head-to-head distance dhh [1, 14]: 3.9 ± 0.4 nm | Radius of gyration Rg [1, 15]: 55.1 ± 0.5 nm | head-to-head distance dhh [1, 15]: 2.9 ± 0.2 nm | Radius of gyration Rg [1, 16]: 52.4 ± 0.8 nm | head-to-head distance dhh [1, 16]: 4.3 ± 0.5 nm | Radius of gyration Rg [1, 17]: 61.6 ± 0.4 nm | head-to-head distance dhh [1, 17]: 3.4 ± 0.9 nm | Radius of gyration Rg [1, 18]: 61.0 ± 0.5 nm | head-to-head distance dhh [1, 18]: 3.4 ± 0.7 nm | Radius of gyration Rg [1, 19]: 64.0 ± 0.8 nm | head-to-head distance dhh [1, 19]: 3.8 ± 0.8 nm | Radius of gyration Rg [1, 20]: 58.0 ± 0.3 nm | head-to-head distance dhh [1, 20]: 4.0 ± 0.6 nm | Radius of gyration Rg [1, 21]: 60.0 ± 0.4 nm | head-to-head distance dhh [1, 21]: 4.0 ± 0.7 nm | Radius of gyration Rg [1, 22]: 61.4 ± 0.6 nm | head-to-head distance dhh [1, 22]: 3.2 ± 0.6 nm | Radius of gyration Rg [1, 23]: 52.3 ± 0.9 nm | head-to-head distance dhh [1, 23]: 4.4 ± 0.4 nm
SMILES: CCCCCCCCCCCCCCCC(=O)NCC(CNC(=O)CCCCCCCCCCCCCCC)OP(=O)([O-])OCC[N+](C)(C)C [Pad-PC-Pad, 1,3-palmitoylamido-1,3-deoxy-sn-glycero-2-phosphatidylcholine]

mean membrane thickness [2]: 3.20 nm
SMILES: CCCCCCCCCCCCCCCCC(=O)NCC(CNC(=O)CCCCCCCCCCCCCCCC)OP(=O)([O-])OCC[N+](C)(C)C [Rad-PC-Rad, 1,3-diheptadecanamidopropan-2-yl (2-(trimethylammonio)ethyl) phosphate]
